In patent US20210355235A1, “Compositions and Methods For Treating Cancer with Anti-Renalase antibodies and Anti-PD1 antibodies” (YALE UNIVERSITY, priority 2017, published 2021):

What was measured:
renal ischemia = renal ischemia and reperfusion in WT mice; assay type: in vivo, mouse; conditions: 30 minutes of renal ischemia and reperfusion
Procedure: FIG. 3 is a chart showing that ERK or AKT inhibition abrogates protective effect of renalase peptide: WT mice subjected to sham surgery or to 30 minutes of renal ischemia and reperfusion; RP-[…] or vehicle (saline) injected 10 minutes before renal ischemia. ERK inhibitor PD98059 or the PI3K/AKT inhibitor wortmannin abrogated RP-[…]'s protective effect.

MiaPaCa2 cells = conditions: pretreatment before rRNLS 30 μg/ml

SMILES	effect on RP-H220's protective effect (renal ischemia)	effect on rRNLS' protective effect (MiaPaCa2 cells)
COc1cccc(-c2cc(=O)c3ccccc3o2)c1N [PD98059]	abrogated	–
N#CC(=C(/N)Sc1ccccc1N)/C(C#N)=C(\N)Sc1ccccc1N [U0126]	–	abrogated
